This assay concerns BDF1 mice, B16 melanoma ip, median survival T/C. Briefly: NCI In Vivo Anticancer Drug Screen. Data for tumor model B16 Melanoma (intraperitoneal) in B6D2F1 (BDF1) mice. The settings on record: endpoint: median survival time, higher = longer survival. An outline of the steps: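 Vehicle-treated animals serve as the reference (C); treated animals (T) are scored for survival or tumor size after tumor transplantation.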

Setting [1] is: dose: 100.0 mg/kg/injection, schedule: Q01DX009 (ip), vehicle: Klucel (hydroxypropylcellulose) (HPC).
The mark [2] stands for this setting: dose: 200.0 mg/kg/injection, schedule: Q01DX009 (ip), vehicle: Klucel (hydroxypropylcellulose) (HPC).
Setting [3] is: dose: 0.75 mg/kg/injection, schedule: Q01DX009 (ip), vehicle: saline.
Setting [4] is: dose: 1.5 mg/kg/injection, schedule: Q01DX009 (ip), vehicle: saline.
[5] abbreviates: dose: 100.0 mg/kg/injection, schedule: Q01DX009 (ip), vehicle: saline with Tween-80.
Where [6] appears, read: dose: 200.0 mg/kg/injection, schedule: Q01DX009 (ip), vehicle: saline with Tween-80.
Setting [7] is: dose: 12.5 mg/kg/injection, schedule: Q01DX009 (ip), vehicle: saline.
[8] abbreviates: dose: 50.0 mg/kg/injection, schedule: Q01DX009 (ip), vehicle: saline with Tween-80.
[9] abbreviates: dose: 50.0 mg/kg/injection, schedule: Q01DX009 (ip), vehicle: saline.
Setting [10] is: dose: 100.0 mg/kg/injection, schedule: Q01DX009 (ip), vehicle: saline.
Where [11] appears, read: dose: 200.0 mg/kg/injection, schedule: Q01DX009 (ip), vehicle: saline.
The mark [12] stands for this setting: dose: 25.0 mg/kg/injection, schedule: Q01DX009 (ip), vehicle: saline.
Setting [13] is: dose: 400.0 mg/kg/injection, schedule: Q01DX009 (ip), vehicle: Klucel (hydroxypropylcellulose) (HPC).

“And” between values parts separate entries of the source, which are not always exact repeats. Equal values may be shown once. Inconclusive results and toxic doses are left out.

Consider `Nc1ccn(C2CC(O)C(CO)O2)c(=O)n1` (stereo not drawn), for which the T/C (dose: 9.38 mg/kg/injection, schedule: Q01DX009 (ip), vehicle: water) was 105 % of control; the T/C (dose: 18.75 mg/kg/injection, schedule: Q01DX009 (ip), vehicle: water) is 101 % of control; the T/C (dose: 37.5 mg/kg/injection, schedule: Q01DX009 (ip), vehicle: water) was 100 % of control; the T/C (dose: 75.0 mg/kg/injection, schedule: Q01DX009 (ip), vehicle: water) is 99 % of control; the T/C (dose: 150.0 mg/kg/injection, schedule: Q01DX009 (ip), vehicle: water) is 109 % of control.

In the case of `CNc1ccccc1C(N)=O`, the T/C is, setting by setting: under setting [1], 94 % of control; under setting [2], 100 % of control.

Consider `CC[C@@]1(O)C[C@H](OC2CC(N(C)C)C(OC3CC(O)C(O[C@@H]4O[C@@H](C)C(=O)C=C4N)C(C)O3)C(C)O2)c2c(cc3c(c2O)C(=O)c2c(O)ccc(O)c2C3=O)[C@H]1C(=O)OC` (stereo partly drawn), for which the T/C by setting is: (dose: 0.03 mg/kg/injection, schedule: Q01DX001 (ip), vehicle: saline) 113 % of control; (dose: 0.05 mg/kg/injection, schedule: Q01DX001 (ip), vehicle: saline) 109 % of control; (dose: 0.38 mg/kg/injection, schedule: Q01DX009 (ip), vehicle: saline) 178 % of control; under setting [3], 167 % of control; under setting [4], 223 % of control; (dose: 1.6 mg/kg/injection, schedule: Q01DX001 (ip), vehicle: saline) 159 % of control. Further, the T/C runs as follows: (dose: 3.2 mg/kg/injection, schedule: Q01DX001 (ip), vehicle: saline) 114 % of control; (dose: 1.0 micrograms/kg/injection, schedule: Q01DX005 (ip), vehicle: Klucel (hydroxypropylcellulose) (HPC)) 110 % of control; (dose: 2.0 micrograms/kg/injection, schedule: Q01DX005 (ip), vehicle: Klucel (hydroxypropylcellulose) (HPC)) 100 % of control; (dose: 4.0 micrograms/kg/injection, schedule: Q01DX005 (ip), vehicle: Klucel (hydroxypropylcellulose) (HPC)) 107 % of control; (dose: 8.0 micrograms/kg/injection, schedule: Q01DX005 (ip), vehicle: Klucel (hydroxypropylcellulose) (HPC)) 103 % of control.

Regarding `Nc1cc(S(N)(=O)=O)ccc1SSc1ccc(S(N)(=O)=O)cc1N`, the T/C is, setting by setting: under setting [5], 95 % of control; under setting [6], 93 % of control.

For `C[N+](C)(C)C`, the T/C was 112 % of control (dose: 0.37 mg/kg/injection, schedule: Q01DX009 (ip), vehicle: saline); 109 % of control under setting [4]; 95 % of control under setting [7].

In the case of `O=C(Nc1ccc([N+](=O)[O-])cc1)Nc1nccs1`, the T/C (dose: 50.0 mg/kg/injection, schedule: Q01DX009 (ip), vehicle: distilled water + Tween-80) was 152 % of control.

As for `O=C(O)CCS(=O)(=O)CCC(=O)O`, the T/C is, setting by setting: under setting [8], 102 % of control; under setting [5], 100 % of control; under setting [6], 102 % of control.

As for `O=C1C(Cl)=C(c2ccccc2)C(=O)C(Cl)=C1c1ccccc1`, the T/C was 114 % of control (dose: 6.25 mg/kg/injection, schedule: Q01DX009 (ip), vehicle: Klucel (hydroxypropylcellulose) (HPC)); 106 % of control (dose: 12.5 mg/kg/injection, schedule: Q01DX009 (ip), vehicle: Klucel (hydroxypropylcellulose) (HPC)); 87 % of control (dose: 25.0 mg/kg/injection, schedule: Q01DX009 (ip), vehicle: Klucel (hydroxypropylcellulose) (HPC)); 94 % of control (dose: 50.0 mg/kg/injection, schedule: Q01DX009 (ip), vehicle: Klucel (hydroxypropylcellulose) (HPC)).

In the case of `NCC(=O)NC(CCCN=C(N)N)C(=O)O` (stereo not drawn), the T/C is, setting by setting: under setting [9], 103 % of control; under setting [10], 98 % of control; under setting [11], 92 % of control.

For `Nc1ccn([C@@H](C=O)O[C@@H](C=O)CO)c(=O)n1`, the T/C was 100 % of control and 112 % of control (dose: 6.25 mg/kg/injection, schedule: Q01DX009 (ip), vehicle: saline); 101 % of control and 102 % of control under setting [7]; 91 % of control and 109 % of control under setting [12]; 99 % of control and 103 % of control under setting [9]; 107 % of control and 112 % of control under setting [10]; 113 % of control under setting [11].

Regarding `O=[N+]([O-])c1cc([N+](=O)[O-])c(Br)cc1Cl`, the T/C is, setting by setting: (dose: 2.5 mg/kg/injection, schedule: Q01DX009 (ip), vehicle: saline with Tween-80) 92 % of control; (dose: 5.0 mg/kg/injection, schedule: Q01DX009 (ip), vehicle: saline with Tween-80) 98 % of control; (dose: 10.0 mg/kg/injection, schedule: Q01DX009 (ip), vehicle: saline with Tween-80) 87 % of control; (dose: 20.0 mg/kg/injection, schedule: Q01DX009 (ip), vehicle: Klucel (hydroxypropylcellulose) (HPC)) 94 % of control.

Regarding `CCC/C(C)=N/Nc1ccccn1`, the T/C is 97 % of control (dose: 12.5 mg/kg/injection, schedule: Q01DX009 (ip), vehicle: saline sonified); 95 % of control (dose: 25.0 mg/kg/injection, schedule: Q01DX009 (ip), vehicle: saline sonified); 97 % of control (dose: 50.0 mg/kg/injection, schedule: Q01DX009 (ip), vehicle: saline sonified); 100 % of control (dose: 100.0 mg/kg/injection, schedule: Q01DX009 (ip), vehicle: saline sonified).

For the compound `Nc1ccc(N=Nc2ccccc2)c(N)c1`, the T/C was 106 % of control (dose: 25.0 mg/kg/injection, schedule: Q01DX009 (ip), vehicle: saline with Tween-80); 93 % of control and 101 % of control under setting [8]; 101 % of control under setting [1]; 95 % of control and 101 % of control under setting [5]; 99 % of control under setting [2]; 87 % of control and 90 % of control under setting [6].

For the compound `O=C(CCCl)NC(Cc1ccccc1)c1ccccc1` (stereo not drawn), the T/C under setting [1] was 110 % of control, the T/C under setting [2] was 96 % of control and the T/C under setting [13] is 96 % of control.

Turning to `NCCN.[Ni+2].[O-]c1ccccc1[O-].[O-]c1ccccc1[O-]`, the T/C reads like this: (dose: 1.56 mg/kg/injection, schedule: Q01DX009 (ip), vehicle: saline with Tween-80) 100 % of control; (dose: 3.13 mg/kg/injection, schedule: Q01DX009 (ip), vehicle: saline with Tween-80) 97 % of control; (dose: 6.25 mg/kg/injection, schedule: Q01DX009 (ip), vehicle: saline with Tween-80) 87 % of control; (dose: 12.5 mg/kg/injection, schedule: Q01DX009 (ip), vehicle: saline with Tween-80) 87 % of control.

Regarding `CC(C)C(N)C(=O)Nc1nncs1` (stereo not drawn), the T/C by setting is: under setting [7], 103 % of control; under setting [12], 114 % of control; under setting [9], 108 % of control; under setting [10], 102 % of control.

Take `CCc1ccc(/C=C/c2ccc(O)c3ncccc23)[n+](C)c1`: the T/C (dose: 4.0 mg/kg/injection, schedule: Q01DX009 (ip), vehicle: saline with Tween-80) was 93 % of control; the T/C (dose: 8.0 mg/kg/injection, schedule: Q01DX009 (ip), vehicle: saline with Tween-80) was 93 % of control; the T/C (dose: 16.0 mg/kg/injection, schedule: Q01DX009 (ip), vehicle: saline with Tween-80) was 102 % of control; the T/C (dose: 32.0 mg/kg/injection, schedule: Q01DX009 (ip), vehicle: saline with Tween-80) is 114 % of control.

In the case of `N[C@H](C(=O)O)[C@@H]1CC(Cl)=NO1`, the T/C by setting is: (dose: 0.25 mg/kg/injection, schedule: Q01DX009 (ip), vehicle: saline) 93 % of control and 96 % of control and 102 % of control; under setting [3], 112 % of control; under setting [4], 110 % of control; (dose: 3.0 mg/kg/injection, schedule: Q01DX009 (ip), vehicle: saline) 114 % of control; (dose: 6.0 mg/kg/injection, schedule: Q01DX009 (ip), vehicle: saline) 156 % of control; (dose: 12.0 mg/kg/injection, schedule: Q01DX009 (ip), vehicle: saline) 57 % of control.

For `O=C(O)C(S)c1ccc2ccccc2c1` (stereo not drawn), the T/C is 101 % of control under setting [1] and 96 % of control under setting [2].

As for `Cc1cccc(C)c1NC(=O)Nc1cccc(Cl)c1`, the T/C runs as follows: under setting [1], 100 % of control; (dose: 100.0 mg/kg/injection, schedule: Q04DX003 (ip), vehicle: Klucel (hydroxypropylcellulose) (HPC)) 100 % of control; under setting [2], 100 % of control; (dose: 200.0 mg/kg/injection, schedule: Q04DX003 (ip), vehicle: Klucel (hydroxypropylcellulose) (HPC)) 100 % of control; under setting [13], 86 % of control; (dose: 400.0 mg/kg/injection, schedule: Q04DX003 (ip), vehicle: Klucel (hydroxypropylcellulose) (HPC)) 100 % of control.

Values taken from PubChem BioAssay AID192 (DTP/NCI, 2004).
